# Key:
# human M2R = molecular target: T1, human M2R (Homo sapiens, UniProt P08172); assay: M2R cAMP signaling (forskolin-stimulated cAMP, oxotremorine agonist); format: cell-based
# T1 construct: host or cells: HEK293 (CRL-1573, ATCC), transient
# T1 sequence (P08172 1-466): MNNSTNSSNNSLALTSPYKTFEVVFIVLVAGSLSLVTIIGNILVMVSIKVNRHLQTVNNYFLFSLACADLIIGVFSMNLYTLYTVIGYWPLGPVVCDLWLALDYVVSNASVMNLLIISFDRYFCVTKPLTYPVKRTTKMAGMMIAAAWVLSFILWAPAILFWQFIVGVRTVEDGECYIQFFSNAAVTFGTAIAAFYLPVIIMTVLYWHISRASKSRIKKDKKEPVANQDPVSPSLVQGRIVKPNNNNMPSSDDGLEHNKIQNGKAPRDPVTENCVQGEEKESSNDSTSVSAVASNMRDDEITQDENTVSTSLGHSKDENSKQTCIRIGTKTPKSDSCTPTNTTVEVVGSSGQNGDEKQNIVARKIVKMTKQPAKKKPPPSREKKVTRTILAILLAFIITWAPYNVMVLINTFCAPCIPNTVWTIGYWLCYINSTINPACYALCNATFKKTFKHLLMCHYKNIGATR
# Method: The M2R coupled to Gαi/o proteins, and its agonism functioned to decrease formation of the intracellular second messenger cyclic-adenosine-monophosphate (cAMP). […] In the presence of oxotremorine, an antagonist of the M2R would be expected to reverse the effects of the agonist, thereby increasing cAMP formation.
# M2R cAMP Signaling: cAMP measurements were performed with the cAMP Hunter eXpress® CHRM2 CHO-K1 GPCR assay (Eurofins DiscoveRx, Fremont, Calif., USA) according to the manufacturer's protocol. Briefly, in the provided 96-well tissue culture-treated plate, 100 μL of human M2R expressing CHO-K1 cells were seeded in cell plating reagent and incubated (37° C., 5% CO2, 95% humidity) overnight. Cell plating reagent was replaced with 30 μL of cell assay buffer the next day. For agonist stimulation, cells were treated with increasing half-log unit concentrations of oxotremorine in the presence of 10 μM forskolin, followed by incubation for 30 minutes. A cAMP antibody, cAMP working detection solution and enzyme acceptor solution were then added according to the protocol, and the final chemiluminescent signals were detected by a Mithras LB 940 microplate reader (Berthold Technologies, Bad Wildbad, Germany). Antagonist tests were run by pretreating cells with increasing half-log unit concentrations of α-PHP, followed by incubation for one hour. Cells were then treated with EC80 concentration of oxotremorine (130 nM) and 10 μM forskolin. The same incubation and detection procedure used for agonist assays was used for the remaining steps.
# (§1) Curve Fitting and Statistical Analyses: All data were analyzed by GraphPad 8.3.0 (San Diego, Calif., USA). Ki values were determined from data fit to both one- and two-site models. […] EC50 and IC50 values from functional assays were determined from data fit to the log(agonist) vs. response (three parameters) or log(inhibitor) vs. response (three parameters) model, respectively. Kb values were calculated from IC50 values using the Cheng-Prusoff equation with modification (see, e.g., Leff, P., and Dougall, I. G. (1993) Trends Pharmacol Sci 14, 110-112): Kb=IC50/((2+([A]/[A50])nH)1/nH−1)
# M2 (h) = molecular target: T2, M2 (h) (Homo sapiens, UniProt P08172); assay: M2 (h) antagonist effect, cAMP HTRF cellular functional assay; format: cell-based
# T2 construct: expressed in transfected cells; host or cells: CHO cells (human recombinant)
# T2 sequence (P08172 1-466): T1 sequence (P08172 1-466)
# Method: Compounds (1) and (2) were tested at several concentrations for IC50 or EC50 determination at target receptors. […] For antagonist assays, Kb affinity values were calculated from IC50 values using GraphPad Prism 9 (San Diego, Calif. USA).
# [1] = system: mice on the FVB background; assay: Open field locomotor activity in mice; format: in vivo; details: 2.8 mg/kg, s.c., 20-min open field
# Method: Since functional inhibition of neurotransmitter transporters, particularly DAT, is classically known to cause psychomotor stimulation, the ability of Compound (1) to induce this effect in mice was assessed, directly comparing results to α-PHP, a pyrrolidine-substituted analog of Compound (1). Adult male and female mice on the FVB background were injected subcutaneously and then immediately placed inside of an open field chamber, where their activity was recorded automatically for 20-min by an overhead camera connected to a PC running EthoVision XT software. […] Data are means (±SEM).
# human M4R = molecular target: T3, human M4R (Homo sapiens, UniProt P08173); assay: [3H]Scopolamine radioligand competition binding at M4R
# T3 construct: host or cells: HEK293 (CRL-1573, ATCC), transient
# T3 sequence (P08173 1-479): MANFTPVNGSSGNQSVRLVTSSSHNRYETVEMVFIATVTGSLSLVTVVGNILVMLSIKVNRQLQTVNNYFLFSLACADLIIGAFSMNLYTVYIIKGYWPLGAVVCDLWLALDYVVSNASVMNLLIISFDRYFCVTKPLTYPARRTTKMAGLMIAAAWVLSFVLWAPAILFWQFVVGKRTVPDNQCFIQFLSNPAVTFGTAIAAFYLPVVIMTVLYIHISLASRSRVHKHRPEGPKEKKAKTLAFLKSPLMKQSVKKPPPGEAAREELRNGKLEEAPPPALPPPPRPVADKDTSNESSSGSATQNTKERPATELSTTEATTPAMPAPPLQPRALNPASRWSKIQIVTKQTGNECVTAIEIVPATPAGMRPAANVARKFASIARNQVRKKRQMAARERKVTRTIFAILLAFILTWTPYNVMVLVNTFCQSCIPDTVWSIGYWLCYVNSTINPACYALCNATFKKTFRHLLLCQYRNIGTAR
# Method: Radioligand Competition Binding: Radioligand competition binding assays were conducted using membranes collected from transiently transfected HEK293 cells (P<20 from a procured stock, CRL-1573, ATCC, Manassas, Va., USA) as previously described (Chen, Y., et al. Drug Test Anal 11, 990-998). Briefly, cells ˜90% confluent in 10 cm plates were transfected with 5 μg human M1R, M2R, M3R, M4R or […] cDNA (cDNA resource center, Bloomsburg, Pa., USA) using a lipid-based method (LipoD293 reagent, SignaGen Laboratories, Rockville, Md., USA). Membranes were collected by centrifugation about 48 hours later and stored at −80° C. until used. […] After a 90-minute incubation at room temperature on a shaker, contents from the plates were rapidly filtered through GF/B fiberglass filter mats, pre-soaked with ice cold 50 mM Tris buffer (pH 7.4), using a Microbeta Filtermat-96 cell harvester (Perkin Elmer, Waltham, Mass., USA). Approximately 200 mL of ice cold, 50 mM Tris buffer was then vacuumed through filter mats to wash away unbound radioligand. Filter mats were dried on a hot plate and soaked in Betaplate (Perkin Elmer, Waltham, Mass., USA) scintillation fluid in plastic bags. Bags were sealed and placed in cassettes. Radioactivity was measured in a Microbeta2 Microplate Counter (Perkin Elmer, Waltham, Mass., USA), and counts per minute corresponding to each well on the plates were recorded. For full dose-response competition binding assays, increasing half-log unit concentrations of five unsubstituted PSCs were tested at M2Rs and M1Rs, with the same procedures described above.
# as §1
SMILES,Kb (human M2R),IC50 (M2 (h)),Kb (M2 (h)),locomotor activity [1],Ki (human M4R)
"CCCCC(C(=O)c1ccccc1)N1CCCCC1 (stereo not drawn) [Compound (1), 1-phenyl-2-(piperidin-1-yl)hexan-1-one]",126 nM,1700 nM,120 nM,nearly indistinguishable from vehicle-treated mice,1240 nM
"CCCCC(C(=O)c1ccccc1)N1CCCCCC1 (stereo not drawn) [Compound (2), 2-(azepan-1-yl)-1-phenylhexan-1-one]",158 nM,2000 nM,160 nM,,997 nM
"CCCCC(C(=O)c1ccccc1)N1CCCC1 (stereo not drawn) [α-PHP, 1-phenyl-2-(pyrrolidin-1-yl)hexan-1-one]",120 nM,,,robustly increased locomotor activity compared to vehicle,1950 nM
